Test results taken from patent publication US20090136616A1, “METHODS OF FEEDING RUMINANTS ON WINTER FORAGE SUPPLEMENTING WITH ZEOLITE” (priority 2007, published 2009).
Where two headings read alike, the source gives them in different places.

Key:
[1] = test system: Char-Hereford cross heifer calves; type: in vivo
Procedure: The experimental animals were Char-Hereford cross unweaned heifer calves originating from Western Ontario and Eastern Manitoba Canada. On arrival they were vaccinated for IBR, PI3 and BVD. They were treated for internal and external parasites with Ivomec. They were implanted with Synovex C.
Approximately 350 head of calves were purchased weighing approximately 500 lbs. From this group 160 head and were selected for the experiment and randomly allotted into four experimental groups. Each treatment contains 5 reps of 8 head each. They were grown on a medium energy level diet limit fed calculated to obtain a daily gain of approximately 2.6 lbs. Length of feeding period will be approximately 100 days. After arrival and prior to the trial allotment they were each-backgrounded for approximately 3-4 weeks. They averaged approximately 550 lbs at the beginning of the trial.
Data collected included: • 1. Gain, consumption and conversions at 28 day intervals and overall. • 2. Observations on bloat and metabolic problems. • 3. Cost of gain by treatment including feed and feed additive cost, with no yardage or “mark up”.
Originally the trial was scheduled for 100 days, but because of unusually good performance, it was decided to terminate at 91 days.

[2] = test system: feedlot cattle; experiment: Summary of seven feedlot experiments with Biolite in med and n-med finishing diets (rumen pH, liver abscesses, performance); type: in vivo; conditions: sample collected by Geishauser Probe prior to the morning feeding; B at 1.2% DMB
Description: These diets have been composed of corn silage for roughage, flaked corn, and a substantial amount of wet corn milling byproducts.
The feed additives used included Monensin sodium (R) and Tylosin phosphate (T).
Data collected included daily gain, consumption, feed efficiency, rumen pH and observations on bloat and metabolic problems. Carcass data including liver abscess occurrence were collected.
Rumen samples were collected from cattle prior to the morning feeding using a Geishauser Probe.

[3] = test system: Angus cross steer and heifer calves; conditions: bovine, in vivo
Procedure: The experimental animals were Angus cross steer and heifer calves from Manitoba, Canada. They were trucked to the experimental feedlot located near Kitchener, Ontario, Canada. On arrival of the animal received IBR, PIP and BVD vaccine plus Covexina. They were also treated for internal and external parasites with Ivomec pour on. Prior to the beginning of this trial the calves were preconditioned for approximately 45 days and adapted to a high concentrate diet.
Following the preconditioning period, unhealthy calves were removed and the remaining calves were divided into steer and heifer groups. These groups were then divided at random into 20 pens of steers and 20 pens of heifers. Each of the pens contained 8 head of calves. Five pens of steers and 5 pens of heifers were then allotted to each of 4 experimental treatments.
Initial, 28 day interim weights and final weights were based on gross weights less a 4% pencil shrink. Experimental data collected included average daily gain, feed consumption and feed conversions. In addition, death loss and bloat problems were observed. At the termination of the trial, Rumen pH was measured on 4 animals from each treatment using a Geishauser Probe. The pH measurements were taken at 2, 4 and 6 hours after feeding.
A calcium clinoptilolite zeolite (Biolite®) was added in place of an equivalent amount of corn. […]

[4] = summarized: NC vs RT and BL vs no BL treatments pooled

Nova-Cell [NC]
Bloat Died ([1]; 91 days): 0
Bloat Treated ([1]; 91 days): 0
Consumption ([1]; 91 days): 17.0αb
Conversions ([1]; 91 days): 5.97b
ADG ([1]; 91 days, limit fed grow ration, BL at 1.2% DMB): 2.85b
ADG [1, 4]: 3.03α
Consumption [1, 4]: 17.11α
Conversions [1, 4]: 5.70

Monensin sodium [R]
rumen pH [2]: R 6.43b means with different super script letter differ, P < .OS O 6.46b

Nova-Cell + Biolite [NC + BL]
Bloat Treated ([1]; bovine, in vivo): 0

calcium clinoptilolite zeolite [Biolite ®]
Metabolics Treated [3]: 4
